Measured values as given in patent US10494376B2, “Tetrahydroisoquinoline derived PRMT5-inhibitors” (CTXT PTY LTD, priority 2014, dated 2019).
Structures can show the parent of a compound that is named as a salt. Where two headings read alike, the source gives them in different places.

Tests used:
[1] = test system: symmetrical dimethylation of arginine (Di-Methyl Histone H4 Arginine 3) in cell line TE11; assay: Revised PRMT5 Biomarker Assay (Di-Methyl Histone H4 Arginine 3 immunofluorescence); assay type: cell-based; conditions: TE11 cells, 72 hours
Method: Compounds of the invention may be tested for potency to inhibit symmetrical dimethylation of arginine in the following assay:
The cell line TE11 was seeded at a density of 6,000 cells per well in 96 well optical quality tissue culture plates in DME medium and 10% foetal bovine serum, and allowed to adhere for 5 hours under standard culture conditions (37 degree Celsius, 5% CO2). […] After incubation for 72 hours, the cells were fixed with 3.7% formaldehyde in PBS for 30 minutes at room temperature, washed with phosphate buffer saline and blocked with Odyssey blocking buffer (LI-COR, Lincoln, Nebr.). Rabbit anti-Di-Methyl Histone H4 Arginine 3 specific antibody (Epigentek) in Odyssey blocking buffer was added and incubated for 14 hours at 4 degree Celsius. […] Alternatively, the plates were imaged on a PerkinElmer Phenix high content imaging platform. […] The resulting mean intensity per cell was directly converted to percent inhibition as outlined above (IC50, imager based).

[2] = biological target: Full-length PRMT5 enzyme (NCBI Reference sequence NP_006100.2) co-expressed with His6-MEP50 (Homo sapiens (Human), UniProt O14744); assay: Revised PRMT5 Biochemical Assay; conditions: 1 μM peptide substrate, 1 μM S-Adenosyl methionine, 4 hours at 37 degree Celsius, Transcreener EPIGEN fluorescence polarisation
Sequence of Full-length PRMT5 enzyme (NCBI Reference sequence NP_006100.2) co-expressed with His6-MEP50 (O14744 whole entry): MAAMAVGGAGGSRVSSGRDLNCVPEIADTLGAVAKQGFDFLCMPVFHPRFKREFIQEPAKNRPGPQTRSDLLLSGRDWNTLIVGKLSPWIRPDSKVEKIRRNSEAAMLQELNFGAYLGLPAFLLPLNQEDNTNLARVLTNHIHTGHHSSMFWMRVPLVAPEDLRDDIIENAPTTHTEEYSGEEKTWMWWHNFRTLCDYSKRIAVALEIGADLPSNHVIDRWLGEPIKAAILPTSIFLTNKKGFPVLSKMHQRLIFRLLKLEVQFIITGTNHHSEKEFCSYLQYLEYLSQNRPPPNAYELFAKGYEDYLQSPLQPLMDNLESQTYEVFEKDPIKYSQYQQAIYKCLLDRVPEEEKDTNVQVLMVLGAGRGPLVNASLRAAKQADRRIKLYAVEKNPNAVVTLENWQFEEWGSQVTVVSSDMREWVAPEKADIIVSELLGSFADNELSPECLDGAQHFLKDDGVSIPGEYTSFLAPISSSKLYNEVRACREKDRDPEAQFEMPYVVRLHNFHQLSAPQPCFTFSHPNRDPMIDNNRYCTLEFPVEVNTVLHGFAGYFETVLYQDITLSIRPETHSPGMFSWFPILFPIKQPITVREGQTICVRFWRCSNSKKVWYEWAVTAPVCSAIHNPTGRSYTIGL
Sequence of Full-length PRMT5 enzyme (NCBI Reference sequence NP_006100.2) co-expressed with His6-MEP50 (Q9BQA1 whole entry partner): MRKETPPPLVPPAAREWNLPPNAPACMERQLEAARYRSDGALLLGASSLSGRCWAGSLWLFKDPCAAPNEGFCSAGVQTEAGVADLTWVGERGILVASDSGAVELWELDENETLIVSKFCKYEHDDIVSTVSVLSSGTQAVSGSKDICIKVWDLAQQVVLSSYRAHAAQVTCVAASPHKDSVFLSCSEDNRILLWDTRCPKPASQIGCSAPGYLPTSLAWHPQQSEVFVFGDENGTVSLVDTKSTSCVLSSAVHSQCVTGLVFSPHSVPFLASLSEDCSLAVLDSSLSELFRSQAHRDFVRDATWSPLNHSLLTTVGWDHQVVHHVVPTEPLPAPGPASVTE
In short: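 Full-length PRMT5 co-expressed with His6-MEP50 in insect cells (15 ng/reaction) was run with 1 μM H4-derived peptide and 1 μM SAM in PBS, 0.01% Tween-20, 0.01% albumin and 1 mM DTT for 4 h at 37 °C. Product was read by Transcreener EPIGEN fluorescence polarisation, and IC50 came from a 4-parameter fit.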

[3] = Homo sapiens, TE-11, PerkinElmer Envision fluorescence intensity, corrected for Hoechst 33342, read-out: IC50 - plate-reader based
[4] = Homo sapiens, TE-11, PerkinElmer Phenix high content imaging, mean intensity per cell, read-out: IC50 - image based

Q: Which results are given for O=C(NC[C@@H](O)[C@@H]1Cc2ccccc2CN1)c1ccccc1 [Example 3, N-((R)-2-Hydroxy-2-((S)-1,2,3,4-tetrahydroisoquinolin-3-yl)ethyl)benzamide]?
A: IC50 [1, 3]: 1460 nM; IC50 [2]: 8360 nM

Q: Which results are given for CCOc1ccccc1C(=O)NC[C@@H](O)[C@@H]1Cc2ccccc2CN1 [Example 8, 2-Ethoxy-N-((R)-2-hydroxy-2-((S)-1,2,3,4-tetrahydroisoquinolin-3-yl)ethyl)benzamide]?
A: IC50 [1, 3]: 2320 nM; IC50 [2]: 16500 nM

Q: O=C(NC[C@@H](O)[C@@H]1Cc2ccccc2CN1)c1ccc(C(=O)N2CCOCC2)cc1F [Example 15, 2-Fluoro-N-((R)-2-hydroxy-2-((S)-1,2,3,4-tetrahydroisoquinolin-3-yl)ethyl)-4-(morpholine-4-carbonyl)benzamide] was tested. Which IC50 [1, 3] did it give?
A: 23 nM

Q: And the IC50 [2]?
A: 383 nM

Q: Which IC50 [1, 3] does the source give for O=C(NC[C@@H](O)[C@@H]1Cc2ccccc2CN1)c1ccnc(OC2CCNCC2)c1 [Example 21, N-((R)-2-Hydroxy-2-((S)-1,2,3,4-tetrahydroisoquinolin-3-yl)ethyl)-2-(piperidin-4-yloxy)isonicotinamide] here?
A: 87 nM

Q: What about the IC50 [2] of the same molecule?
A: 70 nM

Q: How did the IC50 [1, 3] turn out when O=C(NC[C@@H](O)[C@@H]1Cc2ccccc2CN1)c1ccnc(OC2CCOCC2)c1 [Example 26, N-((R)-2-Hydroxy-2-((S)-1,2,3,4-tetrahydroisoquinolin-3-yl)ethyl)-2-((tetrahydro-2H-pyran-4-yl)oxy)isonicotinamide bis(2,2,2-trifluoroacetic acid) salt] was run?
A: 15 nM

Q: What about the IC50 [1, 4] of the same molecule?
A: 3 nM

Q: What about the IC50 [2] of the same molecule?
A: 53 nM

Q: Which results are given for COC(=O)N1CCC(Oc2cc(C(=O)NC[C@@H](O)[C@@H]3Cc4ccccc4CN3)ccn2)CC1 [Example 27, Methyl 4-((4-(((R)-2-hydroxy-2-((S)-1,2,3,4-tetrahydroisoquinolin-3-yl)ethyl)carbamoyl)pyridin-2-yl)oxy)piperidine-1-carboxylate bis(2,2,2-trifluoroacetic acid) salt]?
A: IC50 [1, 3]: 7 nM; IC50 [2]: 44 nM

Q: With O=C(NC[C@@H](O)[C@@H]1Cc2ccccc2CN1)c1ccc(C(=O)N2CCOCC2)cc1 [Example 28, N-((R)-2-Hydroxy-2-((S)-1,2,3,4-tetrahydroisoquinolin-3-yl)ethyl)-4-(morpholine-4-carbonyl)benzamide hydrochloride] as the molecule, how does the IC50 [1, 3] read?
A: 12 nM

Q: What about the IC50 [2] of the same molecule?
A: 180 nM

Q: Which results are given for O=C(NC[C@@H](O)[C@@H]1Cc2ccccc2CN1)c1ccc(C(=O)N2CCS(=O)(=O)CC2)cc1 [Example 37, 4-(1,1-Dioxidothiomorpholine-4-carbonyl)-N-((R)-2-hydroxy-2-((S)-1,2,3,4-tetrahydroisoquinolin-3-yl)ethyl)benzamide]?
A: IC50 [1, 3]: 254 nM; IC50 [2]: 105 nM

Q: Which IC50 [1, 3] does the source give for O=C(NC[C@@H](O)[C@@H]1Cc2ccccc2CN1)c1ccc(C(=O)N2C3CCC2COC3)cc1 [Example 49, 4-(3-Oxa-8-azabicyclo[3.2.1]octane-8-carbonyl)-N—((R)-2-hydroxy-2-((S)-1,2,3,4-tetrahydroisoquinolin-3-yl)ethyl)benzamide hydrochloride] here?
A: 6 nM

Q: And the IC50 [1, 4]?
A: 1 nM

Q: And the IC50 [2]?
A: 38 nM

Q: What does the source list for CCOc1cc(C(=O)N2C3CCC2COC3)ccc1C(=O)NC[C@@H](O)[C@@H]1Cc2ccccc2CN1 [Example 50, 4-(3-Oxa-8-azabicyclo[3.2.1]octane-8-carbonyl)-2-ethoxy-N—((R)-2-hydroxy-2-((S)-1,2,3,4-tetrahydroisoquinolin-3-yl)ethyl)benzamide hydrochloride]?
A: IC50 [1, 3]: 0.3 nM; IC50 [1, 4]: 0.3 nM; IC50 [2]: 19 nM

Q: With CC(=O)N1CCC(Nc2cc(C(=O)NC[C@@H](O)[C@@H]3Cc4ccccc4CN3)ncn2)CC1 [Example 51, 6-((1-Acetylpiperidin-4-yl)amino)-N—((R)-2-hydroxy-2-((S)-1,2,3,4-tetrahydroisoquinolin-3-yl)ethyl)pyrimidine-4-carboxamide dichloride] as the molecule, how does the IC50 [1, 3] read?
A: 15 nM

Q: And the IC50 [2]?
A: 61 nM

Q: With CCOc1cc(C(=O)N2C3CCCC2COC3)ccc1C(=O)NC[C@@H](O)[C@@H]1Cc2ccccc2CN1 [Example 55, 4-(3-Oxa-9-azabicyclo[3.3.1]nonane-9-carbonyl)-2-ethoxy-N—((R)-2-hydroxy-2-((S)-1,2,3,4-tetrahydroisoquinolin-3-yl)ethyl)benzamide] as the molecule, how does the IC50 [1, 3] read?
A: 0.4 nM

Q: What about the IC50 [1, 4] of the same molecule?
A: 0.2 nM

Q: And the IC50 [2]?
A: 16 nM

Q: What does the source list for CCOc1cc(C(=O)N2C3CCC2COC3)c(F)cc1C(=O)NC[C@@H](O)[C@@H]1Cc2ccccc2CN1 [Example 69]?
A: IC50 [1, 3]: 3 nM; IC50 [2]: 1300 nM

Q: Which results are given for CCOc1cc(CC(=O)N2C3CCC2COC3)ccc1C(=O)NC[C@@H](O)[C@@H]1Cc2ccccc2CN1 [Example 74]?
A: IC50 [1, 3]: 5 nM; IC50 [2]: 338 nM

Q: With CCOc1cc(CC(=O)N2CCCC2)ccc1C(=O)NC[C@@H](O)[C@@H]1Cc2ccccc2CN1 [Example 79, 2-Ethoxy-N-((R)-2-hydroxy-2-((S)-1,2,3,4-tetrahydroisoquinolin-3-yl)ethyl)-4-(2-oxo-2-(pyrrolidin-1-yl)ethyl)benzamide hydrochloride] as the molecule, how does the IC50 [1, 4] read?
A: 3 nM

Q: What about the IC50 [2] of the same molecule?
A: 168 nM

Q: How did the IC50 [1, 3] turn out when CCOc1c(C(=O)NC[C@@H](O)[C@@H]2Cc3ccccc3CN2)ccc(C(=O)N2CCOCC2)c1C [Example 80, 2-Ethoxy-N-((R)-2-hydroxy-2-((S)-1,2,3,4-tetrahydroisoquinolin-3-yl)ethyl)-3-methyl-4-(morpholine-4-carbonyl)benzamide hydrochloride] was run?
A: 3 nM

Q: What about the IC50 [2] of the same molecule?
A: 161 nM

Q: With O=C(NC[C@@H](O)[C@@H]1Cc2ccccc2CN1)c1ccc(C(=O)N2C3CCC2COC3)cc1F [Example 81, 4-(3-Oxa-8-azabicyclo[3.2.1]octane-8-carbonyl)-2-fluoro-N-((R)-2-hydroxy-2-((S)-1,2,3,4-tetrahydroisoquinolin-3-yl)ethyl)benzamide hydrochloride] as the molecule, how does the IC50 [1, 3] read?
A: 3 nM

Q: What about the IC50 [2] of the same molecule?
A: 51 nM

Q: What does the source list for CCOc1cc(C(=O)N2C3CCC2COC3)ncc1C(=O)NC[C@@H](O)[C@@H]1Cc2ccccc2CN1 [Example 82, 6-(3-Oxa-8-azabicyclo[3.2.1]octane-8-carbonyl)-4-ethoxy-N-((R)-2-hydroxy-2-((S)-1,2,3,4-tetrahydroisoquinolin-3-yl)ethyl)nicotinamide dihydrochloride]?
A: IC50 [1, 4]: 8 nM; IC50 [2]: 106 nM

Q: With O=C(NC[C@@H](O)[C@@H]1Cc2ccccc2CN1)c1ccc(C(=O)N2C3CCC2COC3)cc1Cl [Example 83, 4-(3-Oxa-8-azabicyclo[3.2.1]octane-8-carbonyl)-2-chloro-N-((R)-2-hydroxy-2-((S)-1,2,3,4-tetrahydroisoquinolin-3-yl)ethyl)benzamide] as the molecule, how does the IC50 [1, 3] read?
A: 4 nM

Q: And the IC50 [2]?
A: 65 nM

Q: O=C(NC[C@@H](O)[C@@H]1Cc2ccccc2CN1)c1ccc2nc(C(F)(F)F)[nH]c2c1 [Example 84, N-((R)-2-Hydroxy-2-((S)-1,2,3,4-tetrahydroisoquinolin-3-yl)ethyl)-2-(trifluoromethyl)-1H-benzo[d]imidazole-6-carboxamide dihydrochloride] was tested. Which IC50 [1, 3] did it give?
A: 81 nM

Q: And the IC50 [2]?
A: 124 nM

Q: How did the IC50 [1, 4] turn out when COC(=O)N1CCC(Oc2ccc(C(=O)NC[C@@H](O)[C@@H]3Cc4ccccc4CN3)cn2)CC1 [Example 100, Methyl 4-((5-(((R)-2-hydroxy-2-((S)-1,2,3,4-tetrahydroisoquinolin-3-yl)ethyl)carbamoyl)pyridin-2-yl)oxy)piperidine-1-carboxylate] was run?
A: 11 nM

Q: And the IC50 [2]?
A: 66 nM

Q: For O=C(NC[C@@H](O)[C@@H]1Cc2ccccc2CN1)c1ccc(N2CCOCC2)nc1 [Example 101, N—((R)-2-Hydroxy-2-((S)-1,2,3,4-tetrahydroisoquinolin-3-yl)ethyl)-6-morpholinonicotinamide], which IC50 [1, 4] is on record?
A: 10 nM

Q: And the IC50 [2]?
A: 104 nM

Q: Which results are given for CC(=O)N1CCC(Oc2cc(C(=O)NC[C@@H](O)[C@@H]3Cc4ccccc4CN3)ccn2)CC1 [Example 102, 2-((1-Acetylpiperidin-4-yl)oxy)-N—((R)-2-hydroxy-2-((S)-1,2,3,4-tetrahydroisoquinolin-3-yl)ethyl)isonicotinamide]?
A: IC50 [1, 3]: 5 nM; IC50 [2]: 68 nM

Q: With O=C(NC[C@@H](O)[C@@H]1Cc2ccccc2CN1)c1ccc(C(=O)N2C3CCCC2COC3)cc1 [Example 103, 4-(3-Oxa-9-azabicyclo[3.3.1]nonane-9-carbonyl)-N—((R)-2-hydroxy-2-((S)-1,2,3,4-tetrahydroisoquinolin-3-yl)ethyl)benzamide] as the molecule, how does the IC50 [1, 3] read?
A: 4 nM

Q: What about the IC50 [2] of the same molecule?
A: 65 nM

Q: With O=C(NC[C@@H](O)[C@@H]1Cc2ccccc2CN1)c1ccnc(OC2CCOC2)c1 (stereo partly drawn) [Example 104, N—((R)-2-Hydroxy-2-((S)-1,2,3,4-tetrahydroisoquinolin-3-yl)ethyl)-2-((tetrahydrofuran-3-yl)oxy)isonicotinamide bis(2,2,2-trifluoroacetate)] as the molecule, how does the IC50 [1, 4] read?
A: 12 nM

Q: What about the IC50 [2] of the same molecule?
A: 147 nM

Q: Which results are given for COC(=O)N1[C@@H]2CC[C@H]1C[C@@H](Oc1cc(C(=O)NC[C@@H](O)[C@@H]3Cc4ccccc4CN3)ccn1)C2 [Example 105, Methyl (1R,3r,5S)-3-((4-(((R)-2-hydroxy-2-((S)-1,2,3,4-tetrahydroisoquinolin-3-yl)ethyl)carbamoyl)pyridin-2-yl)oxy)-8-azabicyclo[3.2.1]octane-8-carboxylate]?
A: IC50 ([1]; PerkinElmer Phenix high content imaging, mean intensity per cell, read-out: IC50 - image based): 1 nM; IC50 [2]: 38 nM
